Where two headings read alike, the source gives them in different places. Residues, ends and D or L forms follow the SMILES beside them. *: point of attachment. Cbz = O=C(OCc1ccccc1)*
Key:
[1] = test system: xMRE11-P (MRE11 phosphorylation); assay: MRE11 phosphorylation in activated Xenopus extracts (immunoblot); format: biochemical, Xenopus laevis
Protocol: (§1) A series of monoketone analogs of curcumin [18] was evaluated in Xenopus egg extracts where DNA substrate-induced xFANCD2-Ub is used as a readout of FA pathway performance. Phosphorylation of MRE11 (MRE11-P), a member of the MRN DNA damage repair pathway was monitored to assess the cross-specificity of the compounds. For each compound, IC50 values were determined from serial dilution experiments and densitometry analysis of immunoblots.
(§2) IC50 values were determined using immunoblots of plasmid-activated extracts treated with a range of concentrations for each compound (0, 10, 25, 60, 150, 400, 1000, 3000 μM). A representative experiment is shown (out of 3 repeats). B) Structure of curcumin and monoketone analogs. […] Activated extracts were treated with 1 mM each compound and phosphorylation of RPA32 and H2AX monitored by immunoblot.
(§3) Preparation of Xenopus laevis low-speed extracts and the FA pathway assay were described previously.
(§4) Fitted curves were determined from experimental data using IgorPro. The concentration of compound that induces 50% inhibition of the measured endpoint (i.e. FANCD2 ubiquitylation, Mre11 phosphorylation and cell survival) was then plotted on the fitted curve.

[2] = test system: xFANCD2-Ub (FANCD2 monoubiquitylation); assay: Xenopus cell-free FA pathway assay: DNA substrate-induced xFANCD2 monoubiquitylation (immunoblot, densitometry); format: biochemical, Xenopus laevis; conditions: for activity against xFANCD2-Ub in Xenopus extracts: activated Xenopus extracts, serial dilutions up to 3000 μM; for IC50: plasmid-activated Xenopus extracts, Fig. 7B, read-out: xFANCD2-Ub inhibition IC50
Protocol: as §1, §2, §3, §4

[3] = test system: IKK (IκB-α stabilization); assay: IκB-α accumulation in Xenopus extracts as readout of IKK inhibition (immunoblot); format: biochemical, Xenopus laevis; conditions: Xenopus extracts prepared without cycloheximide, Fig. 3A/3B
Protocol: We tested whether EF24 inhibits IKK activity in Xenopus extracts by monitoring the accumulation of the IKK target, IκB-α (Fig. 3A). Because IκB-α phosphorylation by IKK leads to its degradation by the ubiquitin-proteasome pathway, inhibition of IKK results in the accumulation of IκB-α. For this experiment, we used extracts prepared without cycloheximide to allow for de novo translation of IκB-α.
Extracts treated as indicated were analyzed by immunoblot using xFANCD2, IκB-α and tubulin-α antibodies. IκB-α protein level was used as readout for monitoring IKK inhibition. […] Experiment was performed as in (A). The structure of BMS-345541 is shown. The star denotes a non-specific band used as loading control.

[4] = test system: IKK-2 (IKKβ) vs IKK-1 (IKKα); conditions: cited from earlier work
proteasome [5] = assay: Proteasome assay in Xenopus extracts, both activities taken together; format: biochemical, Xenopus laevis; conditions: caspase-like and chymotrypsin-like activities
Text: The proteasome is required for the monoubiquitylation of xFANCD2 in cells. As curcumin has proteasome inhibiton activities, we tested whether EF24 inhibits xFANCD2-Ub by this mechanism. Two proteasome activities (caspase-like and chymotrypsin-like) along with xFANCD2-Ub status were monitored in activated Xenopus extracts treated with various compounds (Fig. 2A).
Proteasome activities and xFANCD2-Ub were monitored using fluorogenic probes and immunoblotting, respectively. IC50 values were determined for each compound using a range of concentrations and represented in histogram graphs. For MG132, numbers above caspase-like and chymotrypsin-like histograms indicate the actual IC50 values. A representative experiment is shown (out of 3 repeats).
Fluorogenic peptides (Proteasome Substrate Pack #PW9905) specific for the chymotrypsin-like and caspase-like activities of the proteasome were incubated in Xenopus extracts treated with serial dilutions of various compounds. Fluorescence emitted by proteasome cleavage of the peptides was monitored using a fluorometer (FluoStar Galaxy, BMG Labtech) with 380 nm and 460 nm excitation and emission filters, respectively. Experiments were repeated at least twice.

334ATM WT cells = assay: Survival assay (MTS), ATM wild-type mouse kidney cells; format: cell-based; conditions: 72 hrs, read-out: cell survival IC50 WT
Text: (§5) To test this possibility, we compared the effects of curcumin and EF24 in an ATM KO mouse kidney cell line (309ATM KO) and its isogenic, wild type counterpart (334ATM WT). As expected from ATM deficiency, 309ATM KO cells were more sensitive to ionizing irradiation than 334ATM WT (Additional File 1 - Fig. S3). We next treated these cell lines with various concentrations of EF24 and measured their survival after 72 hrs.
(§6) Figure 6 EF24 but not curcumin or DRB is more toxic to ATM-deficient mouse kidney cells than wild-type cells. A) 309ATM KO and 334ATM WT cells were treated with various concentrations of EF24. Cell viability was measured after 3 days by MTS assay. Each point represents the mean of 3 repeats. Error bars represent standard deviation. B) Similar experiment was performed using curcumin.
(§7) HSC72OT and HSC72OT+A cells were seeded at 5,000 per well in 96-well plates, and treated 24 hrs later with various concentrations of compounds or DMSO (1 μl in 100 μl medium). 309ATM KO and 334ATM WT cells were seeded at 7,000 per well and treated immediately. Cell survival was measured after 3 days using the CellTiter 96 AQueous One Solution Cell Proliferation Assay (Promega) following the recommendations from the manufacturer. All experiments were done in triplicate.
as §4

309ATM KO cells = assay: Survival assay (MTS), ATM KO mouse kidney cells; format: cell-based; conditions: for sensitivity of 309ATM KO cells compared to 334ATM WT cells: 72 hrs survival, KO vs WT; for IC50: 309ATM KO cells, 72 hrs, MTS, read-out: cell survival IC50 KO
Text: as §5, §6, §7, §4

hFANCD2-Ub in HeLa cells = assay: hFANCD2 ubiquitylation assay in hydroxyurea-treated HeLa cells (immunoblot, densitometry); format: cell-based, human; conditions: Homo sapiens; HeLa cells co-treated with hydroxyurea; read-out: hFANCD2-Ub inhibition IC50
Protocol: We next determined whether EF24 could inhibit hFANCD2-Ub in human cells. Curcumin was tested in parallel to assess whether activity difference observed in extracts are mirrored in cells. HeLa cells were co-treated with increasing concentrations of compounds and hydroxyurea (HU), a standard method to stimulate hFANCD2-Ub (Fig. 4A, lanes 1-2, 7-8, [30]).
A) Hydroxyurea-induced FANCD2-Ub in HeLa cells is inhibited by EF24 at lower concentrations than curcumin. hFANCD2-Ub was monitored by immunoblot and densitometry analysis to determine IC50. B) Hydroxyurea-induced hFANCD2 foci formation is inhibited by EF24. hFANCD2 foci were detected by immunofluorescence and the percentage of cells with more than 5 foci was determined for each treatment. Histograms represent the average of 3 experiments. Error bars represent standard deviation.
hFANCD2 ubiquitylation assay and immunofluorescence assays in HeLa cells have been described elsewhere.
as §4

[6] = test system: ubiquitin isopeptidase/deubiquitinase (DUB); parameters: method as in PMID 16982768; conditions: cited from earlier work
proteasome [7] = test system: proteasome; parameters: method as in PMID 16982768; conditions: cited from earlier work

Cc1ccc2nc(NCCN)c3ncc(C)n3c2c1 [BMS-345541, reference compound]
effect on xMRE11 phosphorylation [1]: MRE11 phosphorylation was inhibited
EC50 ([2]; Xenopus extracts prepared without cycloheximide, Fig. 3A/3B, read-out: xFANCD2-Ub inhibition EC50): 970 µM
EC50 [3]: 280 µM
fold more active on IKK-2 (IKKβ) than on IKK-1 (IKKα) [4]: 10 fold

O=C1/C(=C/c2cccc(F)c2)CNC/C1=C\c1cccc(F)c1 [AS153-4]
activity against xFANCD2-Ub in Xenopus extracts [2]: strong activity against xFANCD2-Ub
fold less active than curcumin for proteasome inhibition (proteasome [5]): 20 fold

O=C1/C(=C/c2ccccn2)CNC/C1=C\c1ccccn1 [EF31]
activity against xFANCD2-Ub in Xenopus extracts [2]: strong activity against xFANCD2-Ub
fold less active than curcumin for proteasome inhibition (proteasome [5]): 20 fold

COc1cc(/C=C/C(=O)CC(=O)/C=C/c2ccc(O)c(OC)c2)ccc1O [curcumin]
IC50 (334ATM WT cells; Mus musculus): 17 µM
activity against xFANCD2-Ub in Xenopus extracts [2]: only a weak activity on xFANCD2-Ub
IC50 [2]: > 2000 µM
sensitivity of 309ATM KO cells compared to 334ATM WT cells (309ATM KO cells): slightly more resistant
IC50 (309ATM KO cells; Mus musculus): 23 µM
proteasome inhibition (proteasome [5]): efficiently inhibited both proteasome activities
IC50 (hFANCD2-Ub in HeLa cells): 15 µM

NC1C/C(=C\c2ccccc2F)C(=O)/C(=C/c2ccccc2F)C1 (stereo not shown) [0810-117]
activity against xFANCD2-Ub in Xenopus extracts [2]: non-detectable levels
proteasome inhibition (proteasome [5]): weak inhibitory activities against both the proteasome and xFANCD2-Ub

O=C1/C(=C/c2ccccn2)CSC/C1=C\c1ccccn1 [0821-120A]
activity against xFANCD2-Ub in Xenopus extracts [2]: drops the activity only slightly

O=C1/C(=C/c2ccc(F)cc2)CNC/C1=C\c1ccc(F)cc1 [AS153-5]
activity against xFANCD2-Ub in Xenopus extracts [2]: much more potent than the corresponding thio-pyran analog

O=C1/C(=C/c2ccccc2F)COC/C1=C\c1ccccc1F [AS153-2]
activity against xFANCD2-Ub in Xenopus extracts [2]: undetectable levels

CC(C)(C)OC(=O)N1C/C(=C\c2ccccc2F)C(=O)/C(=C/c2ccccc2F)C1 [0616-104]
activity against xFANCD2-Ub in Xenopus extracts [2]: non-detectable levels

O=C1/C(=C/c2ccc([N+](=O)[O-])cc2)CS(=O)(=O)C/C1=C\c1ccc([N+](=O)[O-])cc1 [4H-TTD, 4H-Thiopyran-4-one, tetrahydro-3,5-bis [(4-nitrophenyl)methylene]-,1,1-dioxide]
IC50 (334ATM WT cells; Mus musculus): 0.5 µM
ubiquitin isopeptidase/deubiquitinase (DUB) inhibition [6]: exhibited ubiquitin isopeptidase/deubiquitinase (DUB) inhibition activity
IC50 [2]: 250 µM
overall cell toxicity concentration relative to EF24 (309ATM KO cells; 309ATM KO and 334ATM WT survival assay): about 10 times
sensitivity of 309ATM KO cells compared to 334ATM WT cells (309ATM KO cells): 3 fold
IC50 (309ATM KO cells; Mus musculus): 0.18 µM
proteasome activity (proteasome [7]): did not inhibit proteasome activity
IC50 (hFANCD2-Ub in HeLa cells): 0.12 µM

OC[C@H]1O[C@@H](n2cnc3cc(Cl)c(Cl)cc32)[C@H](O)[C@@H]1O [DRB, reference compound]
IC50 (334ATM WT cells): 60 µM
activity against xFANCD2-Ub in Xenopus extracts [2]: no effect on the FA pathway in Xenopus extracts
IC50 (309ATM KO cells): 56 µM

CC(C)C[C@@H](C=O)NC(=O)[C@H](CC(C)C)NC(=O)[C@H](CC(C)C)NC(=O)OCc1ccccc1 [MG132, reference compound] (Cbz-Leu-Leu-Leu-aldehyde)
activity against xFANCD2-Ub in Xenopus extracts [2]: only a weak activity on xFANCD2-Ub
proteasome inhibition (proteasome [5]): efficiently inhibited both proteasome activities

CO[C@H]([C@H](O)CC(=O)[C@@H](C)[C@@H](O)CC[C@@H](C)[C@@H]1O[C@]2(CC[C@@H](C)[C@H](CC[C@H](C)C(C)=O)O2)CC[C@@H]1C)[C@H](OC(=O)C[C@@H](O)C1=C(C)C(=O)OC1=O)C(C)C [tautomycin, reference compound]
effect on xMRE11 phosphorylation [1]: accumulation of xMRE11-P
activity against xFANCD2-Ub in Xenopus extracts [2]: no detectable effect on xFANCD2-Ub

O=C1/C(=C/c2ccccn2)COC/C1=C\c1ccccn1 [0822-3]
activity against xFANCD2-Ub in Xenopus extracts [2]: only weakly active

— PMC2807854, “Monoketone analogs of curcumin, a new class of Fanconi anemia pathway inhibitors” (Molecular Cancer, 2009)
